SMILES strings stand for the structures. In brackets after ≈: the same amount, converted by molar mass. Marks after values point to notes of the source that are not given here. Numbered stars: 1 amine (or outer) side, 2 acyl side, 3 side chain; on linkers, the order of the positions; unused ones are H or OH. Square brackets hold non-standard residues; d marks the D form. Side chains are listed from the residue outwards. Peptide text beside a SMILES is read from it. * marks the point of attachment. C18 diacid = O=C(O)CCCCCCCCCCCCCCCCC(=O)*; γGlu = O=C(O)[C@H](CCC(=O)[*:2])N[*:1]; AEEA = NCCOCCOCC(=O)O; Aib = CC(C)(N)C(=O)O

The values that follow come from patent publication US12257287B2, “Glucagon-derived peptide and use thereof” (Tianjin Institute of Pharmaceutical Research Co., Ltd., priority 2018, dated 2025).

For one series, the target named is T1, GC receptor (Homo sapiens, UniProt P47871).
T1 construct: expressed in transfected cells; host or cells: HEK293 cells
The experiment in a line: GC receptor mediated cAMP production in vitro (HEK293 cells transfected with GC receptor). Format: cell-based. As to conditions: 20 min at 37° C., read-out: GCGR (nM EC50). The source says: (§1) The medium was removed, the cells were lysed, and cAMP values were detected referring to the detection method described for the assay kit.
(Cyclic AMP is a second messenger, typically raised through Gs and lowered through Gi signalling.)

A further series deals with T2, human GLP-1 receptor (Homo sapiens, UniProt P43220).
T2 construct: expressed in transfected cells; host or cells: Chinese guinea pig lung cells [sic]
As to the kind of experiment: GLP-1 receptor mediated cAMP production in vitro. As to conditions: cells transfected with human GLP-1 receptor, 20 min at 37° C., read-out: GLP-1R (nM EC50). Format: cell-based.
Source text: as §1

Series [1] is described as follows: Glucose tolerance test in glucose-loaded DIO mice. As to conditions: for AUC of blood glucose, Table 4: DIO mice fasted 16 h, glucose 1 g/kg i.p. 1 h after s.c. administration, 0.5, 1, 1.5 h; for AUC reduction rate (%), Table 4: blood glucose inhibition rate compared with model control group, glucose 1 g/kg i.p. Format: in vivo. The method, boiled down:
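DIO mice fasted 16 h received compound subcutaneously; 1 h later, glucose 1 g/kg was given intraperitoneally. Blood glucose measured at 0.5, 1 and 1.5 h; AUC compared with model control group to give blood glucose inhibition rate (%).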

A short description of series [2]: Short-term administration: food intake and body weight in DIO mice. Format: in vivo. As to conditions: 30 nmol/kg once every 24 h, twice, − decrease. The method, boiled down: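 DIO mice (mean body weight 52.5 g), 5 per group, dosed at 30 nmol/kg every 24 h for two doses, in 10 mM PBS pH 7.4; controls received solvent. Food intake and body weight at 48 h expressed as change rate versus the day before dosing.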

The nature of series [3]: Effect on body weight of DIO mice after 14 days' administration. The format is in vivo, C57BL/6J mice. As to conditions: DIO mice; for body weight change rate, Table 3: subcutaneous injection every day for 14 days, (initial−last)/initial, positive values indicate a decrease. The procedure, abridged:
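C57BL/6J mice on H10060 high-fat diet for 34 weeks (DIO; 45.0–52.0 g), 5 per group, dosed subcutaneously once daily for 14 days; controls received saline. Body weight change (%) = (initial − last-day weight)/initial weight; positive values mean loss.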

A further series in a line: physchem. Format: physicochemical.
Where [4] appears, read: pH 7.5, Solubility, pH 7.5, 10 mM phosphate buffer.
Where [5] appears, read: pH 7.5, Solubility, pH 7.5, 20 mM phosphate buffer.
The mark [6] stands for this setting: pH 8, Solubility, pH 8.0, 10 mM phosphate buffer.
Setting [7] is: pH 8, Solubility, pH 8.0, 20 mM phosphate buffer.
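For Solubility in this document: compound added at 2 mg per mL of phosphate buffer, with the dissolved amount determined in the supernatant.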
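For Solubility, pH 7.5, 20 mM phosphate buffer in this document: compound added at 2 mg per mL of phosphate buffer, with the dissolved amount determined in the supernatant.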

T1 sequence (P47871 26-477): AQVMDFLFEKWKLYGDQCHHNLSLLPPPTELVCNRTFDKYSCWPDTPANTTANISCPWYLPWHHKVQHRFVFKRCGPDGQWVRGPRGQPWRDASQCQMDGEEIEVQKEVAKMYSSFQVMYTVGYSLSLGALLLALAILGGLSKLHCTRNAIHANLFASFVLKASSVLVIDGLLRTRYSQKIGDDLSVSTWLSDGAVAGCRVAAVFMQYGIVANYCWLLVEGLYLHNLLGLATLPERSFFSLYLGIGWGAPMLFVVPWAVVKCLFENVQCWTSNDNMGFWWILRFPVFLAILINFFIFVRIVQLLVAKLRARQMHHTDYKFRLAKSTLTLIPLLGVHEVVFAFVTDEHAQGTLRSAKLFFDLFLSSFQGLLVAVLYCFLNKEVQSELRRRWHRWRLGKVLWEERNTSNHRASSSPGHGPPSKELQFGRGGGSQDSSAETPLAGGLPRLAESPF
T2 sequence (P43220 24-463): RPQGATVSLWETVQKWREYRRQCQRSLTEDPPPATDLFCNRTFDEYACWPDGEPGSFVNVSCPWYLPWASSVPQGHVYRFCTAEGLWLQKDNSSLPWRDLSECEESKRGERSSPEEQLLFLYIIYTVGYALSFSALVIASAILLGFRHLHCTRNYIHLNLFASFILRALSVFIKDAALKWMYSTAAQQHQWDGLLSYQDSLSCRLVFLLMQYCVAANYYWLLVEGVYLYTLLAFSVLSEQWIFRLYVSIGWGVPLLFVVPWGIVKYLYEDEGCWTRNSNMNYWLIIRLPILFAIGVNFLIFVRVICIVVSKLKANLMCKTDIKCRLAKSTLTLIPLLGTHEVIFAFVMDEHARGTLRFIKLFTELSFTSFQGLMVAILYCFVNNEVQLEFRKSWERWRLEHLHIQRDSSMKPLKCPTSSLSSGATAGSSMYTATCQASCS

The EC50 is the concentration needed to bring the measured effect to its halfway point. A word on the solubility: it is the dissolved amount per volume that the medium holds. Higher therefore signals a readily soluble substance. Consider `CC(C)C[C@H](NC(=O)[C@H](Cc1c[nH]c2ccccc12)NC(=O)[C@H](CCC(=O)O)NC(=O)[C@@H](NC(=O)[C@H](Cc1ccccc1)NC(=O)[C@H](CCC(=O)O)NC(=O)[C@H](CCCCNC(=O)COCCOCCNC(=O)COCCOCCNC(=O)CC[C@H](NC(=O)CCCCCCCCCCCCCCCCC(=O)O)C(=O)O)NC(=O)[C@H](C)NC(=O)[C@H](CCCNC(=N)N)NC(=O)[C@H](CCCCN)NC(=O)[C@H](CCC(=O)O)NC(=O)[C@H](CCC(=O)O)NC(=O)[C@H](CC(C)C)NC(=O)[C@H](Cc1ccc(O)cc1)NC(=O)[C@H](CCCCN)NC(=O)[C@H](CO)NC(=O)[C@H](Cc1ccc(O)cc1)NC(=O)[C@H](CC(=O)O)NC(=O)[C@H](CO)NC(=O)[C@@H](NC(=O)[C@H](Cc1ccccc1)NC(=O)[C@@H](NC(=O)CNC(=O)[C@H](CCC(N)=O)NC(=O)C(C)(C)NC(=O)[C@@H](N)Cc1c[nH]cn1)[C@@H](C)O)[C@@H](C)O)C(C)C)C(=O)N[C@@H](CCC(=O)O)C(=O)N[C@@H](C)C(=O)NCC(=O)NCC(=O)N1CCC[C@H]1C(=O)N[C@@H](CO)C(=O)N[C@@H](CO)C(=O)NCC(N)=O` [Compound 54] (H-H[Aib]QGTFTSDYSKYLEEKRAK([AEEA-AEEA-γGlu-C18 diacid])EFVEWLEAGGPSSG-NH2; N-terminus assumed), for which the figures for the EC50 at GC receptor and at human GLP-1 receptor were 0.274 nM and 0.219 nM, respectively. For the same compound, the “glucose tolerance / blood glucose lowering (in words)” value in series [1] (DIO mice, conclusions on Tables 4 and 6) is “significantly improved glucose tolerance”. Also, the “Rate of change in food intake (%)” value in series [2] (at 48 hours vs day before administration) is on record as −35%. In addition, the “Body weight change” value in series [2] (at 48 hours) was -0.9 g. Besides, the “body weight reduction (in words)” value in series [3] (14 days, conclusions on Tables 3 and 5) was “significantly reduced body weight”. Moreover, the solubility in the series “physchem” (setting [4]) is 1260 µg/mL (≈ 278 µM); in the series “physchem” (setting [5]) it was 1080 µg/mL (≈ 238 µM); in the series “physchem” (setting [6]), 1920 µg/mL (≈ 423 µM); in “physchem” (setting [7]), 1180 µg/mL (≈ 260 µM).
Regarding `CCCCCCCCCCCCCCCC(=O)N[C@@H](CCC(=O)N[C@@H](CCC(=O)NCCCC[C@H](NC(=O)[C@H](CC(=O)O)NC(=O)[C@H](CO)NC(=O)[C@@H](NC(=O)[C@H](Cc1ccccc1)NC(=O)[C@@H](NC(=O)CNC(=O)[C@H](CCC(N)=O)NC(=O)C(C)(C)NC(=O)[C@@H](N)Cc1c[nH]cn1)[C@@H](C)O)[C@@H](C)O)C(=O)N[C@@H](CO)C(=O)N[C@@H](CCCCN)C(=O)N[C@@H](Cc1ccc(O)cc1)C(=O)N[C@@H](CC(C)C)C(=O)N[C@@H](CCC(=O)O)C(=O)N[C@@H](CCC(=O)O)C(=O)N[C@@H](CCCNC(=N)N)C(=O)N[C@@H](C)C(=O)N[C@@H](C)C(=O)N[C@@H](CCCCN)C(=O)N[C@@H](CCC(=O)O)C(=O)N[C@@H](Cc1ccccc1)C(=O)N[C@H](C(=O)N[C@@H](C)C(=O)N[C@@H](Cc1c[nH]c2ccccc12)C(=O)N[C@@H](CC(C)C)C(=O)N[C@@H](CCCCN)C(=O)N[C@@H](CCC(=O)O)C(=O)NCC(=O)NCC(=O)N1CCC[C@H]1C(=O)N[C@@H](CO)C(=O)N[C@@H](CO)C(=O)NCC(N)=O)C(C)C)C(=O)O)C(=O)O` [Compound 3] (HELM PEPTIDE1{H.[Aib].Q.G.T.F.T.S.D.K.S.K.Y.L.E.E.R.A.A.K.E.F.V.A.W.L.K.E.G.G.P.S.S.G.[am]}|PEPTIDE2{[CCCCCCCCCCCCCCCC(=O)[*:2]].[gGlu].[gGlu]}$PEPTIDE1,PEPTIDE2,10:R3-3:R2$$$V2.0; N-terminus assumed), the EC50 is 0.1 nM at GC receptor and 20.7 nM at human GLP-1 receptor. Besides, in series [1], the “AUC of blood glucose, Table 4” value worked out at 8.66 ± 2.14 mmol·h/L. For the same compound, the “AUC reduction rate (%), Table 4” value in series [1] (DIO mice) is given as 59.1** %. For the same compound, the “body weight change rate, Table 3” value in series [3] was 22.0%. For the same compound, the “Solubility, pH 7.5, 20 mM phosphate buffer” value in “physchem” (pH 7.5) was “Insoluble”. In addition, the solubility in the series “physchem” (setting [4]) was found to be 60 µg/mL (≈ 14.2 µM); in “physchem” (setting [6]), 170 µg/mL (≈ 40.3 µM); in “physchem” (setting [7]) it was 90 µg/mL (≈ 21.3 µM).
For the compound `CCCCCCCCCCCCCCCC(=O)N[C@@H](CCC(=O)N[C@@H](CCC(=O)NCCCC[C@H](NC(=O)[C@H](CC(=O)O)NC(=O)[C@H](CO)NC(=O)[C@@H](NC(=O)[C@H](Cc1ccccc1)NC(=O)[C@@H](NC(=O)CNC(=O)[C@H](CCC(N)=O)NC(=O)C(C)(C)NC(=O)[C@@H](N)Cc1c[nH]cn1)[C@@H](C)O)[C@@H](C)O)C(=O)N[C@@H](CO)C(=O)N[C@@H](CCCCN)C(=O)N[C@@H](Cc1ccc(O)cc1)C(=O)N[C@@H](CC(C)C)C(=O)N[C@@H](CCC(=O)O)C(=O)N[C@@H](CCC(=O)O)C(=O)N[C@@H](CCCNC(=N)N)C(=O)N[C@@H](C)C(=O)N[C@@H](C)C(=O)N[C@@H](CCCCN)C(=O)N[C@@H](CCC(=O)O)C(=O)N[C@@H](Cc1ccccc1)C(=O)N[C@H](C(=O)N[C@@H](CCC(=O)O)C(=O)N[C@@H](Cc1c[nH]c2ccccc12)C(=O)N[C@@H](CC(C)C)C(=O)N[C@@H](CCC(=O)O)C(=O)N[C@@H](C)C(=O)NCC(=O)NCC(=O)N1CCC[C@H]1C(=O)N[C@@H](CO)C(=O)N[C@@H](CO)C(=O)NCC(N)=O)C(C)C)C(=O)O)C(=O)O` [Compound 2] (HELM PEPTIDE1{H.[Aib].Q.G.T.F.T.S.D.K.S.K.Y.L.E.E.R.A.A.K.E.F.V.E.W.L.E.A.G.G.P.S.S.G.[am]}|PEPTIDE2{[CCCCCCCCCCCCCCCC(=O)[*:2]].[gGlu].[gGlu]}$PEPTIDE1,PEPTIDE2,10:R3-3:R2$$$V2.0; N-terminus assumed), the figures for the EC50 at GC receptor and at human GLP-1 receptor were 0.0352 nM and 0.219 nM, respectively. The “AUC of blood glucose, Table 4” value in series [1] was determined as 8.06 ± 2.06 mmol·h/L. The “AUC reduction rate (%), Table 4” value in series [1] (DIO mice) is 61.9** %. For the same compound, the “body weight change rate, Table 3” value in series [3] was determined as 22.0%. The solubility in the series “physchem” (setting [4]) and in the series “physchem” (setting [5]) was more than 2000 µg/mL throughout.
